Assay results: patent US20110088107A1, “COMPOSITIONS AND METHODS FOR DERIVING OR CULTURING PLURIPOTENT CELLS” (priority 2009, published 2011)

Assays:
[1] = test system: NOD blastocysts (ICM explants); assay: NOD ES cell derivation from blastocysts in the presence of small molecules; type: cell-based, mouse (NOD/LtJ); conditions: NOD/LtJ blastocysts, mESM with the inhibitors
Excerpt: NOD/ShiLtJ were obtained from the Jackson laboratory and bred in specific-pathogen-free animal facility. Control MEFs were made from 129SvJae mice. Non-NOD ES lines derived used in this study as controls were derived from matings between 129SvJae or B6D2F1 mice. To derive ES lines, ICM explants were derived from day 3.5 blastocysts following procedures previously described (Markoulaki et al., 2008). Where applicable, ES derivation medium was also supplemented with the indicated compounds (Table S2). Dissociation of the outgrowths by treatment with Trypsin was performed on day 5 after plating and the cells were further cultured in mESC derivation medium until colonies appeared (typically after 5-7 days). From then on, established ES lines were cultured in mESM condition supplemented with the indicated compounds. NOD […] ES lines were derived by similarly plating blastocysts in EpiSC-derivation medium (For 100 ml, we added 15 ml FBS (Hyclone), 5 ml KSR, 5 μl Lif (1×107 U ESGRO/ml; Chemicon), 100 μl Mek1 inhibitor (PD98059; Cell Signaling Technology), hFGF2 ([…]), 1 ml non-essential amino acids, 1 ml glutamine solution, and 1 ml pen/strep solution into DMEM/F12). ICM outgrowths were manually passaged after 5-7 days and were stably maintained in […] conditions. […]

[2] = test system: secondary transgenic MEF line (OSM); conditions: Lyssiotis et al., 2009; cited from earlier work

For `O=C1Cc2c([nH]c3ccc(Br)cc23)-c2ccccc2N1` [Kenpaullone, 9-bromo-7,12-dihydroindolo[3,2-d][1]benzazepin-6(5H)-one], the “# of ES lines derived” value [1] is listed as 2, the “ES derivation (% efficiency)” value [1] is listed as “(13%)” and the “replacement of Klf4 during iPS reprogramming” value [2] is listed as “replaces Klf4 during iPS reprogramming”.
